In the NIST ThermoML archive (doi:10.1016/j.jct.2011.04.011):

Settings: Liquid, Vibrating tube method

COC [dimethyl ether]
mass density [kg/m3]
Settings | 293.84 K | 303.45 K | 313.18 K | 323 K | 332.83 K | 343.01 K | 353 K | 362.91 K | 372.94 K
1000 kPa | 669.27 | 653.54 | – | – | – | – | – | – | –
3000 kPa | 673.21 | 657.94 | 641.72 | 624.46 | 605.7 | 584.39 | 560.89 | – | –
5000 kPa | 676.85 | 662.06 | 646.5 | 630.01 | 612.33 | 592.63 | 571.39 | 547.69 | 519.39
10000 kPa | 685.08 | 671.42 | 657.11 | 642.19 | 626.46 | 609.39 | 591.7 | 572.99 | 552.4
15000 kPa | 692.61 | 679.73 | 666.38 | 652.54 | 638.17 | 622.87 | 607.19 | 591.04 | 573.78
20000 kPa | 699.44 | 687.19 | 674.68 | 661.65 | 648.33 | 634.17 | 619.91 | 605.41 | 590.14
25000 kPa | 705.75 | 694.14 | 682.06 | 669.81 | 657.3 | 644.06 | 630.86 | 617.51 | 603.55
30000 kPa | 711.53 | 700.39 | 688.96 | 677.2 | 665.34 | 652.87 | 640.46 | 627.99 | 615.07
35000 kPa | 717 | 706.33 | 695.3 | 684.06 | 672.7 | 660.84 | 649.09 | 637.26 | 625.15
40000 kPa | 722.21 | 711.79 | 701.19 | 690.37 | 679.54 | 668.11 | 656.92 | 645.67 | 634.21
50000 kPa | 731.68 | 721.98 | 711.96 | 701.9 | 691.67 | 681.15 | 670.8 | 660.45 | 649.98
60000 kPa | 740.35 | 731.17 | 721.63 | 712.04 | 702.5 | 692.63 | 682.9 | 673.27 | 663.51
70000 kPa | 748.4 | 739.59 | 730.55 | 721.44 | 712.29 | 702.89 | 693.76 | 684.63 | 675.48
